# In US7728005B2, “Ether derivative” (Ajinomoto Co., Inc., priority 2003, dated 2010):
# Assays:
# [1] = system: male ICR mouse; assay: Acetic acid-induced writhing method; assay type: in vivo
# Protocol: The effect of the test compound in the writhing test method induced by acetic acid was examined using male ICR mouse (4-week-old). For intraperitoneal administration of the test compound, the test compound was dissolved in saline containing 5% DMSO and 5% Tween 80 to a suitable concentration, and administered at a dose of 5 ml/kg at 30 min before acetic acid administration. For oral administration of the test compound, the test compound was suspended in 0.5% CMC and administered at a dose of 5 ml/kg at 1 hr before acetic acid administration. Acetic acid was diluted with saline to 0.9%, intraperitoneally administered at a dose of 5 ml/kg and, starting 5 min thereafter, the number of writhing responses was counted for 15 min. Saline containing 5% DMSO and 5% Tween 80 was also intraperitoneally administered to the control group (vehicle administration group). As the standard product, indomethacin was used, which was suspended in 0.5% tragacanth gum and orally administered at 90 min before acetic acid administration. 0.5% Tragacanth gum was administered to the control group.
# The number of writhing responses by each test compound is shown in FIG. 1 and the number of writhing responses by indomethacin is shown in FIG. 2.
# [2] = system: Male ICR mice; assay: Mustard oil-induced thermal hyperalgesia model method (hot plate test); assay type: in vivo; conditions: 1.0 mg/kg oral, 1 hr before hot plate test; ICR mouse
# Protocol: Male ICR mice (5 to 7-week-old) were used. Mustard oil 10% (diluted with distilled water) was subcutaneously injected into both hind paws, and a hot plate test was performed 30 min […] later. The animal was placed on a hot plate and the latency for nociceptive behavior was measured and used as an index. The compound was suspended in 0.5% CMC and orally administered at a dose of 5 ml/kg at 1 hr before the hot plate test. The inhibitory rate was calculated relative to the index measured before administration as 100%.
compound,measurement,setting,value
"COc1ccc2c(c1)c(CC(=O)O)c(C)n2C(=O)c1ccc(Cl)cc1 [indomethacin, reference compound]",inhibitory rate (number of writhing responses),"[1]; 30 mg/kg oral, 90 min before acetic acid",56%
"C[C@@H](COc1cccc(Cl)c1)NC(=O)Nc1cccc2cnccc12 [Example 38, N-[(1S)-2-(3-chlorophenoxy)-1-methylethyl]-N′-(isoquinolin-5-yl)urea]",inhibition rate (latency for nociceptive behavior),[2],57%
"O=C(NCCOc1ccc(F)cc1)Nc1ccccc1Br [Example 1, N-(2-bromophenyl)-N′-[2-(4-fluorophenoxy)ethyl]urea]",inhibitory rate (number of writhing responses),"[1]; 10 mg/kg intraperitoneal, 30 min before acetic acid",76%
